# Legend:
# [1] = molecular target: T1, Mitogen-activated protein kinase 12 (Homo sapiens) (UniProt P53778); assay: Inhibition of recombinant human His-tagged full length p38 gamma expressed in baculovirus expression system using Ser/Thr 03 as substrate at 0.1 uM incubated for 60 mins by Z'-Lyte assay relative to control
# T1 sequence (whole entry): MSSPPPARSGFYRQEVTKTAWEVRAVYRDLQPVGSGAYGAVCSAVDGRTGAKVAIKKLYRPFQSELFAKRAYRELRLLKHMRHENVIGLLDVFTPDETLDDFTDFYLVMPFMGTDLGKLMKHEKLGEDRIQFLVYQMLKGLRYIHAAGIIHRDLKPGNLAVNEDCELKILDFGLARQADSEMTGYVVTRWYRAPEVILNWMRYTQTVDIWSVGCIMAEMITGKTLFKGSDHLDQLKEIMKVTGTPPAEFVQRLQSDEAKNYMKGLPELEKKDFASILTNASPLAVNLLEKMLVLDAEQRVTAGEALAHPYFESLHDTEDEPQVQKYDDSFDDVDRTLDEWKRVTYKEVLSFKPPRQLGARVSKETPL
# [2] = molecular target: T2, Beta-adrenergic receptor kinase 1 (Homo sapiens) (UniProt P25098); assay: Inhibition of recombinant human His-tagged full length GRK2 expressed in baculovirus expression system using Ser/Thr 16 as substrate at 0.1 uM incubated for 60 mins by Z'-Lyte assay relative to control
# T2 sequence (whole entry): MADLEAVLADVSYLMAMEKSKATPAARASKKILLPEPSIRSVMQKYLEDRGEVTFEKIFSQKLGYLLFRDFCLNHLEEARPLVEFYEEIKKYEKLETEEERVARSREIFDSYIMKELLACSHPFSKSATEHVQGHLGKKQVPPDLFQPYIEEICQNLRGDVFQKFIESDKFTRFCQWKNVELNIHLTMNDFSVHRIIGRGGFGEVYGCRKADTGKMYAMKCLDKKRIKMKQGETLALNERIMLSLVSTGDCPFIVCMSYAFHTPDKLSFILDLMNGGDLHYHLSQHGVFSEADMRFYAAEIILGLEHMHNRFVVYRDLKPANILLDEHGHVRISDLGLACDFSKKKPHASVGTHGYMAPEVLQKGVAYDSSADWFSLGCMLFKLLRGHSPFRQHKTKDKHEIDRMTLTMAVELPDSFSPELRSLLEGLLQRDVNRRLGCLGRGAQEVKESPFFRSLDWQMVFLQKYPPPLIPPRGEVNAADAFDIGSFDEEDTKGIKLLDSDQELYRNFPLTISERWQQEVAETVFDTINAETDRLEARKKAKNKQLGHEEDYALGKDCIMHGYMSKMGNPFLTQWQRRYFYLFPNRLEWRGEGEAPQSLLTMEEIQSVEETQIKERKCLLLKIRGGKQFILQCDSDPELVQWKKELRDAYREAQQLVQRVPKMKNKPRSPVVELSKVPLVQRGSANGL
# [3] = molecular target: Protein kinase C beta type (Homo sapiens) (UniProt P05771); assay: Inhibition of recombinant human His-tagged full length PKCbeta1 expressed in insect expression system using Ser/Thr 07 as substrate at 0.1 uM incubated for 60 mins by Z'-lyte assay relative to control
# [4] = molecular target: Insulin receptor (Homo sapiens) (UniProt P06213); assay: Inhibition of recombinant human GST-tagged InsR (1011 to 1382 residues) expressed in baculovirus expression system using Tyr 01 as substrate at 0.1 uM incubated for 60 mins by Z'-lyte assay relative to control
# [5] = molecular target: cAMP-dependent protein kinase catalytic subunit alpha (Homo sapiens) (UniProt P17612); assay: Inhibition of recombinant human His-tagged PKA (1 to 351 residues) expressed in Escherichia coli expression system using Ser/Thr 01 as substrate at 0.1 uM incubated for 60 mins by Z'-lyte assay relative to control
# [6] = molecular target: Tyrosine-protein kinase ABL1 (Homo sapiens) (UniProt P00519); assay: Inhibition of recombinant human His-tagged full length Abl expressed in baculovirus expression system using Tyr 02 as substrate at 0.1 uM incubated for 60 mins by Z'-Lyte assay relative to control
# [7] = molecular target: Glycogen synthase kinase-3 beta (Homo sapiens) (UniProt P49841); assay: Inhibition of recombinant human N-terminal GST-tagged full length GSK3beta expressed in baculovirus expression system using Ser/Thr 09 as substrate at 0.1 uM incubated for 60 mins by Z'-Lyte assay relative to control
# [8] = molecular target: T3, Inhibitor of nuclear factor kappa-B kinase subunit beta (Homo sapiens) (UniProt O14920); assay: Inhibition of recombinant human GST-tagged full length IKKbeta expressed in baculovirus expression system using Ser/Thr 05 as substrate at 0.1 uM incubated for 60 mins by Z'-Lyte assay relative to control
# T3 sequence (whole entry): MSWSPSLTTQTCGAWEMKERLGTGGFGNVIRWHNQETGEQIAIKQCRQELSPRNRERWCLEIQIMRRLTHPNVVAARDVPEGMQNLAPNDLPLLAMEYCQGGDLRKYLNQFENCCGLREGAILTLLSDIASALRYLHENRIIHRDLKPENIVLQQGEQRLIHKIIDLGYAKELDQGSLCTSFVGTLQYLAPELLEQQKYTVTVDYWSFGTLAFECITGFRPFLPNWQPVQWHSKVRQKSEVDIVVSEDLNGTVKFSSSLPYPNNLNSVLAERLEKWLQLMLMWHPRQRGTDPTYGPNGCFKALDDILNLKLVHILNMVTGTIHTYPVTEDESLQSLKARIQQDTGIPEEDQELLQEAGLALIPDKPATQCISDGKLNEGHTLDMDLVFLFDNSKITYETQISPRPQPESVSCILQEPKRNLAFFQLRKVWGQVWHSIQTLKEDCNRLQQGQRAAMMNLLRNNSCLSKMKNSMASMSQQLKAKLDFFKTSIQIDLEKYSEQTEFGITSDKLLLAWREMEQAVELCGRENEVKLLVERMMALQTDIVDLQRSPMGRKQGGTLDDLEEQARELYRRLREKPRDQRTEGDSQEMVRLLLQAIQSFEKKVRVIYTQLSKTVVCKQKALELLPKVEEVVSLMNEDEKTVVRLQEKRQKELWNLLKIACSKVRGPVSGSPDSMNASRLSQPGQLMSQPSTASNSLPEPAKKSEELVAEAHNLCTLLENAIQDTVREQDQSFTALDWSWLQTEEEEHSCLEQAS
# [9] = molecular target: Epidermal growth factor receptor (Homo sapiens) (UniProt P00533); assay: Inhibition of recombinant human GST-tagged EGFR (668 to 1210 residues) expressed in baculovirus expression system using Tyr 4 as substrate at 0.1 uM incubated for 60 mins by Z'-Lyte assay relative to control
# [10] = molecular target: High affinity nerve growth factor receptor (Homo sapiens) (UniProt P04629); assay: Inhibition of recombinant human His-tagged TRKA (441 to 796 residues) expressed in baculovirus expression system using Tyr 01 as substrate at 0.1 uM incubated for 60 mins by Z'-Lyte assay relative to control
# Sequence of High affinity nerve growth factor receptor (Homo sapiens) (P04629 33-796 limits assumed): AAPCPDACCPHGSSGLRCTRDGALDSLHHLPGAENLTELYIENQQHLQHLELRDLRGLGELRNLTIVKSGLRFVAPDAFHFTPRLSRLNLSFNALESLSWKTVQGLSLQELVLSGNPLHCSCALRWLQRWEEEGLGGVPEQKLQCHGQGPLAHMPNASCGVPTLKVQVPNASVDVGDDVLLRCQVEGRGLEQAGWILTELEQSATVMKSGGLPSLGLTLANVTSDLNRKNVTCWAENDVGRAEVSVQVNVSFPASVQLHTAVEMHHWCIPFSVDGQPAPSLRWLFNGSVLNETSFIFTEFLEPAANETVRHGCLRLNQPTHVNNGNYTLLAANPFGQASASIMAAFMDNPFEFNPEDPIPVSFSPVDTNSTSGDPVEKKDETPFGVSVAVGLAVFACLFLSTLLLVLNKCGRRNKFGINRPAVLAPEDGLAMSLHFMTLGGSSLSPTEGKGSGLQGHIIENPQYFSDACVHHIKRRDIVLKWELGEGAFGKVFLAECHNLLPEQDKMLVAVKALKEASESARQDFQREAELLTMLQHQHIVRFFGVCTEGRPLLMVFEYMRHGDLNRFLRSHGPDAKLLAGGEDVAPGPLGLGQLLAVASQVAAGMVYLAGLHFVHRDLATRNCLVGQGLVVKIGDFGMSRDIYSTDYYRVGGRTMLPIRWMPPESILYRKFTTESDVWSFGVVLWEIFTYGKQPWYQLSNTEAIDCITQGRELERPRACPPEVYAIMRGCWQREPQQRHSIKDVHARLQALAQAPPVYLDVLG
# Sequence of Glycogen synthase kinase-3 beta (Homo sapiens) (P49841 whole entry, looked up): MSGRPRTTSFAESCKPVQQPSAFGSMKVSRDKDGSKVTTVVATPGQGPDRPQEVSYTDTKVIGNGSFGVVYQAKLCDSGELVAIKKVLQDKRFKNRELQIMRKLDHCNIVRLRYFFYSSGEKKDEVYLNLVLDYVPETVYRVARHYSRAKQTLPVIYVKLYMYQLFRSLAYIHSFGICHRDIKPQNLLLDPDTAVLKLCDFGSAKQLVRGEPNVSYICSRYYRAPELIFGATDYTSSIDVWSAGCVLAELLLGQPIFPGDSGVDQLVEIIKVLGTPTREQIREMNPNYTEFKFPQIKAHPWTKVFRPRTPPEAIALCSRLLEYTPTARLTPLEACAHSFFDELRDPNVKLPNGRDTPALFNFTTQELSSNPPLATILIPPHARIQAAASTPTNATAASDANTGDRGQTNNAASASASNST
# Sequence of Tyrosine-protein kinase ABL1 (Homo sapiens) (P00519 whole entry): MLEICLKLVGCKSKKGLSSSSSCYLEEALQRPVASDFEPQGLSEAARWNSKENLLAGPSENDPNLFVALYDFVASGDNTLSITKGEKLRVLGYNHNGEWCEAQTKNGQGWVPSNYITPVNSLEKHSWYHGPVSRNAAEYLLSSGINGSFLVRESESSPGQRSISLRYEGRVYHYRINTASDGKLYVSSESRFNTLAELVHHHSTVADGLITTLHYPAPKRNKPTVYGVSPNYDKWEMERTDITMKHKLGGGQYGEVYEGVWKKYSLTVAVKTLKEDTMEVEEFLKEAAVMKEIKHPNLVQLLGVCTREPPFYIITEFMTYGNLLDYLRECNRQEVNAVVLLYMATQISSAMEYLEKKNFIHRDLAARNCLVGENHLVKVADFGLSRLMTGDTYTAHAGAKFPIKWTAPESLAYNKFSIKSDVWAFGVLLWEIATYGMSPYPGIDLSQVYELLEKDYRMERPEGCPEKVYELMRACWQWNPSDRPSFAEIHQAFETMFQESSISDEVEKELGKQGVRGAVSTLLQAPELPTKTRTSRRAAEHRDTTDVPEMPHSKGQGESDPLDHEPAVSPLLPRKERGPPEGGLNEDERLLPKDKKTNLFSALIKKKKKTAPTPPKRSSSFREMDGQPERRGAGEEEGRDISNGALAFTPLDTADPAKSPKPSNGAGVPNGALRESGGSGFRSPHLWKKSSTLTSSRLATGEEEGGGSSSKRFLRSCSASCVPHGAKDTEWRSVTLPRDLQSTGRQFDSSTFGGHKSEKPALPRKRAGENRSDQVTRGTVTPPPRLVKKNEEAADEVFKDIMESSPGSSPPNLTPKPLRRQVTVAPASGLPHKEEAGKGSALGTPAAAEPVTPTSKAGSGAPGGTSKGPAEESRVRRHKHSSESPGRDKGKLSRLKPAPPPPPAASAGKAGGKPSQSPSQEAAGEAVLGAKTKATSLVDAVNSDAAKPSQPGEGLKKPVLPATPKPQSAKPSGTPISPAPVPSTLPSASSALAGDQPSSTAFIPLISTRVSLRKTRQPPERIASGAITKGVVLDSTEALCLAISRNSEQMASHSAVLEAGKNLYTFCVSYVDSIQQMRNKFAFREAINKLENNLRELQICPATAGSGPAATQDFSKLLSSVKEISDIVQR
# Sequence of Epidermal growth factor receptor (Homo sapiens) (P00533 whole entry, the tested form may be a part): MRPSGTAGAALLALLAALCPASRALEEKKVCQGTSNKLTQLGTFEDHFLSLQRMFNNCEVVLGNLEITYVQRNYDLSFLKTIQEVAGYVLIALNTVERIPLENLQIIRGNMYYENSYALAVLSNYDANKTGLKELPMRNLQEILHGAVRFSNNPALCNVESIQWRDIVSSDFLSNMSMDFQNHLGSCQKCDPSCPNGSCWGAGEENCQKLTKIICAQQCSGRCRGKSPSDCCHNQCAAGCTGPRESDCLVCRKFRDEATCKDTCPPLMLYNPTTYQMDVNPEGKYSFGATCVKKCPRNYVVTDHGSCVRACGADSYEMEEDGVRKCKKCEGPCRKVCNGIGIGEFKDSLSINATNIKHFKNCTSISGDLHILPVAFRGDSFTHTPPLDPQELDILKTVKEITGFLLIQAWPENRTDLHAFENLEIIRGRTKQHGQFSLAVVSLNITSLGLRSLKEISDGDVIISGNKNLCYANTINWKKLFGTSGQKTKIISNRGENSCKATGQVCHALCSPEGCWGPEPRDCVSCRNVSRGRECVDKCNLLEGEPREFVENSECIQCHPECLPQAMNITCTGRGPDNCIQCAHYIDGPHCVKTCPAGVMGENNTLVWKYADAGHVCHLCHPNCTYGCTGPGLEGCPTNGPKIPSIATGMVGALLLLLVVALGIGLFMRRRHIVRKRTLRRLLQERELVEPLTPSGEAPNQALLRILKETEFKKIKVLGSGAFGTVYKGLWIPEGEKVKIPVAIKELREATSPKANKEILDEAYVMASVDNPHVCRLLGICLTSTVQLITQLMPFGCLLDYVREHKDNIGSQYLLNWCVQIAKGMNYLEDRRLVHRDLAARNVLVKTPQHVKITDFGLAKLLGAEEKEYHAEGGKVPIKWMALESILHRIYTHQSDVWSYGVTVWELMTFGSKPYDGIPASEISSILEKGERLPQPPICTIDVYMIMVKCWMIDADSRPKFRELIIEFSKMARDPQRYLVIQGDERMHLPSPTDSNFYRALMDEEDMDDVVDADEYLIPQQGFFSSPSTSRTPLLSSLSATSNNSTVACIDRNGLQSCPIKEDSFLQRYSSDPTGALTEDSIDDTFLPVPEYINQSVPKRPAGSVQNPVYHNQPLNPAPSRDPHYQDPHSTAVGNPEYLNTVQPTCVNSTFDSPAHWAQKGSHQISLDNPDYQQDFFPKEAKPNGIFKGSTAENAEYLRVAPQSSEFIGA
# Sequence of Insulin receptor (Homo sapiens) (P06213 28-758 limits assumed): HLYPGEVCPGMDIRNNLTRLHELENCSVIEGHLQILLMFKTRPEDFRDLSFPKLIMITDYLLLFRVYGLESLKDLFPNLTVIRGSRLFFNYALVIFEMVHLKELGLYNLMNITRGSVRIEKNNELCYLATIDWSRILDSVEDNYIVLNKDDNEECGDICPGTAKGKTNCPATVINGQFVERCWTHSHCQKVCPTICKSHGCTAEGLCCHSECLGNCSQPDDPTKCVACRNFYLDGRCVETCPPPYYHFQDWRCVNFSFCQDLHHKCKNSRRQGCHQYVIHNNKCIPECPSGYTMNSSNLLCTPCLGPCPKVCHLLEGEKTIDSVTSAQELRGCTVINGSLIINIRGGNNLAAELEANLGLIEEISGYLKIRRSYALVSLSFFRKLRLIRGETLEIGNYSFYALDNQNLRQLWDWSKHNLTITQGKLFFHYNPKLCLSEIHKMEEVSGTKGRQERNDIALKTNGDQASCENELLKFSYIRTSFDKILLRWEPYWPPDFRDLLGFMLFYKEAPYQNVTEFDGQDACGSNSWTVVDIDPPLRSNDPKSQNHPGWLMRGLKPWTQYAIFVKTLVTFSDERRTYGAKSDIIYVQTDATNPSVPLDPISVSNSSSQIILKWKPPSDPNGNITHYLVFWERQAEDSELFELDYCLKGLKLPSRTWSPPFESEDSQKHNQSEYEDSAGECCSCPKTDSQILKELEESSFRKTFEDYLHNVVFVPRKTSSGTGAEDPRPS
# Sequence of Insulin receptor (Homo sapiens) (P06213 763-1382 limits assumed): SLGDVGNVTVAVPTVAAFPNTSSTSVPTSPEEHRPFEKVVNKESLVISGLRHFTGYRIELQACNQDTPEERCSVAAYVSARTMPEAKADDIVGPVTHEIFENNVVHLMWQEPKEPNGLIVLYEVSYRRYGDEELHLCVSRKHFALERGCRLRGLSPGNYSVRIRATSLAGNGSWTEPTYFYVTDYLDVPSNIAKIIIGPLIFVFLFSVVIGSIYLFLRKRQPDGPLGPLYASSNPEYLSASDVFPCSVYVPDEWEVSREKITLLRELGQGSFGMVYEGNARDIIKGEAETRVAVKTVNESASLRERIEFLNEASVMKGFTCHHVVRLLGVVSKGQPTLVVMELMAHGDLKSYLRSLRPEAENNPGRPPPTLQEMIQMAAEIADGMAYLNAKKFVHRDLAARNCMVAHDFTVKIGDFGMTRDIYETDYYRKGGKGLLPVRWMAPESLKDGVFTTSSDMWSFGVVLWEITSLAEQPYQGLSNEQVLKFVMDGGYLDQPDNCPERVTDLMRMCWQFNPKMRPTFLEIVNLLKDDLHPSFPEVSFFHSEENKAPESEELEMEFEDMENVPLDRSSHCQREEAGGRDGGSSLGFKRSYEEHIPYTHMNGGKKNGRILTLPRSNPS
SMILES,inhibition [1],inhibition [2],inhibition [3],inhibition [4],inhibition [5],inhibition [6],inhibition [7],inhibition [8],inhibition [9],inhibition [10]
Cn1cc(NC(=O)c2cnn3cccnc23)c(-c2cc(Cl)ccc2OC(F)F)n1,4%,8%,2%,4%,-4%,10%,-3%,5%,2%,44%
O=C(Nc1c[nH]nc1-c1cc(Cl)ccc1OC(F)F)c1cnn2cccnc12,-1%,3%,24%,6%,5%,32%,7%,2%,0%,59%
O=C(Nc1c[nH]nc1-c1cc2ccccc2cc1OC(F)F)c1cnn2cccnc12,5%,0%,13%,-8%,5%,11%,7%,-3%,6%,23%

# Reference: ChEMBL document CHEMBL4665643 (Bioorg Med Chem Lett, 2019)
